Consider two compounds from ChEMBL document CHEMBL1137016, “1-alkyl-8-(piperazine-1-sulfonyl)phenylxanthines: development and characterization of adenosine A2B receptor antagonists and a new radioligand with subnanomolar affinity and subtype specificity” (J Med Chem, 2009).

Experiment [1] deals with T1, Adenosine receptor A2b (Homo sapiens, UniProt P29275).
T1 sequence (P29275 whole entry): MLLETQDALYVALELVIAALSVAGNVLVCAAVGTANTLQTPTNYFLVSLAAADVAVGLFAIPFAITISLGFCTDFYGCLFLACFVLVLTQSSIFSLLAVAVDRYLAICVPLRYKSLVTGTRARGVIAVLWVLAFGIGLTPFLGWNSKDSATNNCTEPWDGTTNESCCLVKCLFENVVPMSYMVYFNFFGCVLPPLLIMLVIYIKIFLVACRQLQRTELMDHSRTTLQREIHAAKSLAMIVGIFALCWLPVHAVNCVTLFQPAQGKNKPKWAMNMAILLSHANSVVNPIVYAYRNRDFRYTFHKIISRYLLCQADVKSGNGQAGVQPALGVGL
Put plainly: Displacement of [125I]I-ABOPX from human recombinant adenosine A2B receptor expressed in HEK293 cells. The class given is cell-based. A general note: Loss of bound radioactivity is the signal in a displacement assay; it reports binding, not function.

Experiment [2] addresses T1, Adenosine receptor A2b. Put plainly: Displacement of [3H]PSB-603 from human recombinant adenosine A2B receptor expressed in CHO cells. The experiment is classed as cell-based.
Experiment [3] addresses T2, Adenosine receptor A1 (Homo sapiens, UniProt P30542).
T2 sequence (P30542 whole entry): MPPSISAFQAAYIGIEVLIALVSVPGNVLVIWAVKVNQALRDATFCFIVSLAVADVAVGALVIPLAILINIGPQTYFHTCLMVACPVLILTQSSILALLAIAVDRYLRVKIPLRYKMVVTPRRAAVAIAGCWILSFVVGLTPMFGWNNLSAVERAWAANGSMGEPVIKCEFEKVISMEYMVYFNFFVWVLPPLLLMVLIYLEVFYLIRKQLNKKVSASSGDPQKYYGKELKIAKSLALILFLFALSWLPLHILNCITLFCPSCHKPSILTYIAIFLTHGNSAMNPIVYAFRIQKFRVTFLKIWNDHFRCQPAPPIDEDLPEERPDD
Put plainly: Displacement of [3H]CCPA from human adenosine A1 receptor expressed in CHO cells. The class given is cell-based.

Experiment [4] deals with T3, Adenosine receptor A2b (Mus musculus, UniProt Q60614).
T3 sequence (Q60614 whole entry): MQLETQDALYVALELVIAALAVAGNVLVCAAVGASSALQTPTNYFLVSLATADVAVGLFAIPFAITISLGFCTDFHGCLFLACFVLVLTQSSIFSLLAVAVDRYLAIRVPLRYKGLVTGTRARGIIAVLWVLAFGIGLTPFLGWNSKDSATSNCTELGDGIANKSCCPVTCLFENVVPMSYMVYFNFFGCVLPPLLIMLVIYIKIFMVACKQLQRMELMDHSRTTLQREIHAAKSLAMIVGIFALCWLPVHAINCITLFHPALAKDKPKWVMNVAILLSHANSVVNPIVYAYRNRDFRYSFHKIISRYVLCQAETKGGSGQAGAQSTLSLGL
Nature of the experiment: Displacement of [3H]PSB-603 from mouse recombinant adenosine A2B receptor expressed in CHO cells. The experiment is classed as cell-based.

A further experiment deals with T4, Adenosine receptor A3 (Homo sapiens, UniProt P0DMS8).
T4 sequence (P0DMS8 whole entry): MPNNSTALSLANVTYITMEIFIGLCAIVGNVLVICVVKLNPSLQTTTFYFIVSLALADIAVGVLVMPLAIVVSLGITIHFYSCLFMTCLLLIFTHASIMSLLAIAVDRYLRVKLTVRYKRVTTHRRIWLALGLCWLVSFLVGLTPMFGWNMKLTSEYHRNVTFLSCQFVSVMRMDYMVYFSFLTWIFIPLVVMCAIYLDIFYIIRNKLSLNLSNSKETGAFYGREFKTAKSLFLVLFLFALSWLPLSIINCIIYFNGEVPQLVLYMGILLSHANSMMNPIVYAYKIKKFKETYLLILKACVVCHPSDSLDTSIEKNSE
Put plainly: Displacement of [3H]PSB-11 from human recombinant adenosine A3 receptor expressed in CHO cells. The class given is cell-based.

For experiment [5], the target named is T1, Adenosine receptor A2b. Nature of the experiment: Antagonist activity at adenosine A2B receptor in human Jurkat T cells assessed as inhibition of NECA-induced increase in intracellular calcium concentration by fluorimetric measurement in presence of MSX-2. The class given is functional, cell-based. In general terms: A change in cytosolic calcium serves as a functional read-out for many receptors and channels.

Experiment [6] concerns the target T5, Adenosine receptor A1 (Homo sapiens) (UniProt P30542).
T5 sequence (whole entry): T2 sequence (P30542 whole entry)
Nature of the experiment: Displacement of [3H]CCPA from human recombinant adenosine A1 receptor expressed in CHO cells at 10 uM. The experiment is classed as cell-based.

The target of experiment [7] is Adenosine receptor A2a (Rattus norvegicus) (UniProt P30543). Nature of the experiment: Displacement of [3H]MSX-2 from rat brain striatum adenosine A2A receptor at 10 uM.
The target of experiment [8] is Adenosine receptor A2a (Rattus norvegicus, UniProt P30543). Put plainly: Displacement of [3H]MSX-2 from rat brain striatum adenosine A2A receptor.
The target of experiment [9] is T6, Adenosine receptor A2b (Homo sapiens) (UniProt P29275).
T6 sequence (whole entry): T1 sequence (P29275 whole entry)
Particulars: CHO, 0.3 nM.

In experiment [10] the target is T1, Adenosine receptor A2b. Nature of the experiment: Binding affinity to human recombinant adenosine A2B receptor expressed in CHO cells by saturation experiment. The class given is cell-based.
Experiment [11] has as its target T1, Adenosine receptor A2b. Nature of the experiment: Binding affinity to human recombinant adenosine A2B receptor expressed in CHO cells by kinetic experiment. The class given is cell-based.
The target in experiment [12] is T7, Adenosine receptor A2b (Mus musculus) (UniProt Q60614).
T7 sequence (whole entry): T3 sequence (Q60614 whole entry)
Nature of the experiment: Activity at mouse recombinant adenosine A2B receptor expressed in CHO cells assessed per mg of protein. The class given is cell-based.

The target in experiment [13] is T8, Adenosine receptor A1 (Rattus norvegicus, UniProt P25099).
T8 sequence (P25099 whole entry): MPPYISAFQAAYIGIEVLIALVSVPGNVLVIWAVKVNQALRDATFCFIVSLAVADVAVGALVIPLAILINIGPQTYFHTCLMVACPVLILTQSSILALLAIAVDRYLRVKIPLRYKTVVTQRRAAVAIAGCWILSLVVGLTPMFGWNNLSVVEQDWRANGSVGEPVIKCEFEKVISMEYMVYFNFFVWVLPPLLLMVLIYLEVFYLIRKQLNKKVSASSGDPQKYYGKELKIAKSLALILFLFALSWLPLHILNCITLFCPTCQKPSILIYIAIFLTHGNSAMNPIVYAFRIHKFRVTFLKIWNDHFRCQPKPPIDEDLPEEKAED
Put plainly: Displacement of [3H]CCPA from rat brain cortex adenosine A1 receptor.

The target in experiment [14] is T9, Adenosine receptor A2a (Homo sapiens, UniProt P29274). Put plainly: Displacement of [3H]MSX-2 from human recombinant adenosine A2A receptor expressed in CHO cells. The class given is cell-based.
In experiment [15] the target is T10, Adenosine receptor A1 (Rattus norvegicus) (UniProt P25099).
T10 sequence (whole entry): T8 sequence (P25099 whole entry)
Nature of the experiment: Displacement of [3H]CCPA from rat brain cortex adenosine A1 receptor at 10 uM.

Experiment [16] addresses T11, Adenosine receptor A3 (Homo sapiens) (UniProt P0DMS8).
T11 sequence (whole entry): T4 sequence (P0DMS8 whole entry)
Put plainly: Displacement of [3H]PSB-11 from human recombinant adenosine A3 receptor expressed in CHO cells at 10 uM. The class given is cell-based.

Experiment [17] addresses T6, Adenosine receptor A2b (Homo sapiens). Particulars: CHO, 0.3 nM. The source holds these as a separate data set.
Experiment [18] concerns the target T9, Adenosine receptor A2a. Put plainly: Displacement of [3H]MSX-2 from human recombinant adenosine A2A receptor expressed in CHO cells at 10 uM. The experiment is classed as cell-based.

T9 sequence (P29274 whole entry): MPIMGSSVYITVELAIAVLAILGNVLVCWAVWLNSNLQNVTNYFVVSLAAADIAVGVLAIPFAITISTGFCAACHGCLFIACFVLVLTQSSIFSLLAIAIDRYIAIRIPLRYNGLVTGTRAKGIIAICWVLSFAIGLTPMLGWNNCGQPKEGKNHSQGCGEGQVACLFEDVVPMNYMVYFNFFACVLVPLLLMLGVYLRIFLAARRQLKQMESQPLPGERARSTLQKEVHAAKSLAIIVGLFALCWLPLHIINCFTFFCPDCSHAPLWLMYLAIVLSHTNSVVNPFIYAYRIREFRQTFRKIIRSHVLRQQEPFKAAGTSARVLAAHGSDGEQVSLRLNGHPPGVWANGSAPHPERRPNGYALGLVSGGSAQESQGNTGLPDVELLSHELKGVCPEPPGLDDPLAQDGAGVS
Chain of Adenosine receptor A2a (Rattus norvegicus, UniProt P30543) (P30543 whole entry): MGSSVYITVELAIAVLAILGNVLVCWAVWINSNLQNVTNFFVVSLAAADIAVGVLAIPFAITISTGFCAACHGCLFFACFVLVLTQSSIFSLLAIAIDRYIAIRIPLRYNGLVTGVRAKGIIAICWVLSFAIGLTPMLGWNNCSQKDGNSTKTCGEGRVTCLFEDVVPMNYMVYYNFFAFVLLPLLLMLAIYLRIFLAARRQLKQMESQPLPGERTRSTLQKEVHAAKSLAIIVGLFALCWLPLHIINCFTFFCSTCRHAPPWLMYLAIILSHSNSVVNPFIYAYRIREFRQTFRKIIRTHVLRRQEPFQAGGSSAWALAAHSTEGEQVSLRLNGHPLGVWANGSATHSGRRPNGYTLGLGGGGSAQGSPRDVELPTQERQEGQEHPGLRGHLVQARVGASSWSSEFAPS
Chain of Adenosine receptor A2a (Rattus norvegicus) (P30543 whole entry): as above

One may read the Ki as a measure of affinity in units of concentration, obtained from inhibition or displacement. Take `Nc1nc(Cl)nc2c1ncn2[C@@H]1O[C@H](CO)[C@@H](O)[C@H]1O`: the results for the inhibitory constant (Ki) on Adenosine receptor A2b [1] and at Adenosine receptor A2b [2] were 25500 nM and 21400 nM, respectively.

As usually defined, the Kd is the constant that tells how readily two partners part at equilibrium. One may read the IC50 as the concentration that inhibits the measured activity by half. For orientation: inhibition means the percentage by which the read-out fell short of the control. Regarding `CCCn1c(=O)[nH]c2nc(-c3ccc(S(=O)(=O)N4CCN(c5ccc(Cl)cc5)CC4)cc3)[nH]c2c1=O`, the Ki was more than 10000 nM at Adenosine receptor A1 [3]; more than 10000 nM at Adenosine receptor A3; more than 10000 nM on Adenosine receptor A2a [8]; more than 10000 nM at Adenosine receptor A1 [13]; more than 10000 nM on Adenosine receptor A2a [14]; 0.553 nM at Adenosine receptor A2b [2]. Further, the results for the dissociation constant Kd on Adenosine receptor A2b [4], at Adenosine receptor A2b [10] and on Adenosine receptor A2b [11] were 0.351 nM, 0.403 nM and 0.652 nM, respectively. Further, the IC50 on Adenosine receptor A2b [5] worked out at 1.13 nM. Further, the inhibition in experiment [6] was determined as 10%; in experiment [7] it was 19%; in experiment [15], 18%; in experiment [16], 10%; on Adenosine receptor A2a [18] it was 7%. Further, the figures for the T1/2 in [9] and in [17] were 24.2 min and 12.8 min, respectively. For the same compound, the Bmax in experiment [12] was 645 fmol.
